Data: PMC9686516, “Pharmacokinetic Characteristics of Nebulized Colistimethate Sodium Using Two Different Types of Nebulizers in Critically Ill Patients with Ventilator-Associated Respiratory Infections” (Antibiotics, 2022)
Where two headings read alike, the source gives them in different places. Where a SMILES comes first, the peptide text is derived from it. Bridges are numbered along the chain shown (N, C = ends). [ ]: non-standard residue; d: D form. The star is where a group is joined. X1 = CC[C@H](C)CCCCC(=O)*; Dab = NCC[C@H](N)C(=O)O

Legend:
Acinetobacter baumannii = conditions: animal thigh and lung infection models; cited from earlier work
[1] = adjunctive aerosolized colistin; meta-analysis of mostly observational data; cited from earlier work
Excerpt: The rationale has been the theoretic ability to achieve sufficient concentration in the infectious milieu of the lung parenchyma while sparing any significant systemic adverse outcome. In contrast to these theoretical considerations, inhaled CMS has only had modest efficacy and in ...

[2] = 1 mIU of CMS via VMN; similar ICU setting; median (IQR); cited from earlier work
Protocol: In this single-center study, we compared the pharmacokinetic properties of formed colistin in the ELF and the plasma compartment when inhaled CMS, at a typical dose, was administered either via a VMN or a generic JN. […] Indeed, the median total (as opposed to unbound) AUC0–24 in the ELF for the two modalities were 86.2 and 91.5 mg/L*h for VMN and JN, respectively. […] However, the ELF exposure was similar, despite the higher dose, probably due to a higher clearance from the lung compartment in our study, as evidenced by the ... || Contrarily, our results were only marginally compatible with the results of Boisson et al. and Gkoufa et al.. In the former study, the range of colistin concentration in the ELF following a 2 mIU inhalation spanned from 9.53 to 1137 mg/L [14], while it was between 0.8 mg/L and 57.9 mg/L in the present study. In the latter study, the exact values were not reported, however in the figured data it was shown that after an inhalation of 3 to 5 mIU of CMS, formed colistin concentrations were in the range of 10^2 to 10^3 mg/L [16]. Again, it is not known whether these differences we ...

Klebsiella pneumoniae = conditions: in vitro experiments, typical plasma maximum concentrations; cited from earlier work
[3] = Colistin pharmacokinetics in plasma after nebulized CMS in ventilated VARI patients; assay type: in vivo, human; conditions: for Volume of distribution/ fraction of dose absorbed / Clearance/fraction of dose absorbed / Cmax / AUC0–8 h: NCA; for Volume of distribution/ fraction of dose absorbed: dose/(λ × AUCinf); for Volume of distribution/ fraction of dose absorbed / Clearance/fraction of dose absorbed / Cmax / Cmin / AUC0–8 h / level at 0.5 h / level at 1 h / level at 2 h / level at 4 h / level at 6 h / level at 8 h / Tmax: median (IQR); for Clearance/fraction of dose absorbed: dose/AUCinf; for AUC0–8 h: no systemic CMS, HPLC-fluorescence; for level at 0.5 h / level at 1 h / level at 2 h / level at 4 h / level at 6 h / level at 8 h / Tmax: 2 mIU; for level at 0.5 h: 0.5 h post-nebulization; for level at 0.5 h / level at 1 h / level at 2 h / level at 4 h / level at 6 h / level at 8 h: read-out: Ccolistin, plasma; for level at 1 h: 1 h post-nebulization; for level at 2 h: 2 h post-nebulization; for level at 4 h: 4 h post-nebulization; for level at 6 h: 6 h post-nebulization; for level at 8 h: 8 h post-nebulization
Excerpt: The study population consisted of 24 critically ill adult patients, admitted to the intensive care unit of the First Department of Pulmonology of the National and Kapodistrian University of Athens between June 2014 and November 2017. All patients were intubated and mechanically ventilated, and received inhaled CMS as part of their treatment for VAP or VAT caused by Gram-negative pathogens. Subjects were studied around the first dose of nebulized treatment, which always preceded intravenous treatment, to avoid confounding by colistin (or CMS) reaching the ELF via the systemic circulation. We excluded patients that received a dose different to the institution’s standard of 2 million international units (mIU) (~160 mg) of CMS and patients who were planned to receive intravenous colistin within 8 h of nebulization initiation.
A dose of 2 mIU of CMS (Colistin®, Norma Hellas, Athens, Greece), corresponding to approximately 160 mg CMS or 68 mg colistin-base activity, was nebulized over a 10–30 min period via either VMN (Aeroneb Solo with Aeroneb Pro controller, Aerogen, Galway, Ireland) or generic JN. This was not a randomized trial, and the nebulizer selection was exclusively a matter of availability of VMN consumables in the ICU at the time. The intended dose was dissolved in 4 mL of normal saline 0.9%. The nebulizer was placed at the inspiratory limb of the ventilator circuit, at 15 cm from the Y-piece, and the heat and moisture exchanger was removed. During nebulization, the patients were sedated and ventilated using assist volume controlled mode, with tidal volume set at 8 mL/kg of ideal body weight, a constant squared-wave inspiratory flow, a positive end expiratory pressure (PEEP) of less than or equal to 10 cm H2O, an inspiratory to expiratory time ratio equal to 1, an inspiratory pause of 10%, and a respiratory rate set at 15/min [31].
[…] The specimens were immediately centrifuged (3500× g for 10 min) in a frigid centrifuge (at 4 °C) and supernatants were collected in Eppendorfs and were frozen at −80 °C until analysis.
Colistin concentrations in plasma (Ccolistin,plasma) and epithelial lining fluid (Ccolistin,ELF) were measured through high performance liquid chromatography (HPLC)-fluorescence analysis.
The samples were rapidly centrifuged, and plasma and BAL supernatant were separated and kept frozen (−80 °C) before analysis, as previously described. An HPLC-RF assay was used for colistin concentration measurements in plasma and BAL fluid samples, based on the method of Li et al., as modified by Markou et al. and Ratjen et al.. Briefly, netilmicin was used as the internal standard and the method consisted of a protein precipitation step with trifluoracetic acid (TFA), followed by colistin derivatization with 9-fluorenylmethyl chloroformate on a solid phase extraction C18 cartridge. The eluted fluid was dried under vacuum and the solid residue was reconstituted in mobile phase for subsequent reversed-phase HPLC with fluorescence detection (excitation: 260 nm; emission: 316 nm). The analytical column was a Phenomenex Luna C18, 3 μm, 50 mm × 3 mm with 100 Å particle size, while the mobile phase consisted of ACN/THF/H2O (80/7.7/12.3%) with a flow rate of 0.5 mL/min. The injection volume was 20 μL. The method was linear at a concentration range of 0.10–4.8 mg/L (R^2 = 0.999). The limit of detection (LOD) and lower limit of quantification (LLOQ) were 0.01 and 0.04 mg/L, respectively, while the intra- and inter-assay variabilities were less than 16%. Representative chromatograms and calibration curves in plasma and BAL are given in the Supplementary Material (Figures S1 and S2).
PK analysis was performed on measured serum and ELF concentrations using the Phoenix® version 8.3 PK/PD software package (Certara, Princeton, NJ, USA). […]

[4] = human, inhaled or intranasal, JN, n = 6, 2 mIU CMS inhaled
[5] = human, inhaled or intranasal, VMN, n = 18, 2 mIU CMS inhaled

CC[C@H](C)CCCCC(=O)N[C@@H](CCN)C(=O)N[C@H](C(=O)N[C@@H](CCN)C(=O)N[C@H]1CCNC(=O)[C@H]([C@@H](C)O)NC(=O)[C@H](CCN)NC(=O)[C@H](CCN)NC(=O)[C@H](CC(C)C)NC(=O)[C@@H](CC(C)C)NC(=O)[C@H](CCN)NC1=O)[C@@H](C)O [colistin] (X1-[Dab]T[Dab][Dab][Dab][dL]L[Dab][Dab]T; lactam 4-C)
fAUC/MIC predicting 1-log killing (Acinetobacter baumannii): 7–42 | decrease in the odds of infection-related mortality [1]: ~40% | increase in the odds of clinical cure [1]: approximately 60% | Cmax in ELF [2]: 6.7 (4.8–10.1) mg/L | fAUC/MIC linked to 2-log killing (Klebsiella pneumoniae): 25 | Ccolistin over 2 mg/L, frequency of patients ([3]; 30 min, JN, n = 6, 2 mIU CMS inhaled): 0% | Ccolistin over 2 mg/L, frequency of patients ([3]; 30 min, VMN, n = 18, 2 mIU CMS inhaled): 0% | Ccolistin over 2 mg/L, frequency of patients ([3]; 60 min, JN, n = 6, 2 mIU CMS inhaled): 16.7% | Ccolistin over 2 mg/L, frequency of patients ([3]; 60 min, VMN, n = 18, 2 mIU CMS inhaled): 61.1% | Ccolistin over 2 mg/L, frequency of patients ([3]; 120 min, JN, n = 6, 2 mIU CMS inhaled): 16.7% | Ccolistin over 2 mg/L, frequency of patients ([3]; 120 min, VMN, n = 18, 2 mIU CMS inhaled): 22.2% | Ccolistin over 2 mg/L, frequency of patients ([3]; 240 min, JN, n = 6, 2 mIU CMS inhaled): 16.7% | Ccolistin over 2 mg/L, frequency of patients ([3]; 240 min, VMN, n = 18, 2 mIU CMS inhaled): 5.6% | Ccolistin over 2 mg/L, frequency of patients ([3]; 360 min, JN, n = 6, 2 mIU CMS inhaled): 0% | Ccolistin over 2 mg/L, frequency of patients ([3]; 360 min, VMN, n = 18, 2 mIU CMS inhaled): 0% | Ccolistin over 2 mg/L, frequency of patients ([3]; 480 min, JN, n = 6, 2 mIU CMS inhaled): 0% | Ccolistin over 2 mg/L, frequency of patients ([3]; 480 min, VMN, n = 18, 2 mIU CMS inhaled): 0% | Volume of distribution/ fraction of dose absorbed ([3]; JN, n = 6, 2 mIU CMS inhaled): 129.8 (95.6–151.9) L | Clearance/fraction of dose absorbed ([3]; JN, n = 6, 2 mIU CMS inhaled): 37.6 (23.2–39.9) L/h | Cmax ([3]; JN, n = 6, 2 mIU CMS inhaled): 0.3 (0.3–1.6) mg/L | AUC0–24 ([3]; JN, n = 6, 2 mIU CMS inhaled, calculated as AUCinf × 3, median (IQR)): 4.0 (3.8–19.3) mg/L∙h | Cmin ([3]; JN, n = 6, 2 mIU CMS inhaled): 0.1 (0.1–0.2) mg/L | AUC0–8 h ([3]; JN, n = 6, 2 mIU CMS inhaled): 1.3 (1.3–6.4) mg/L∙h | Mean T1/2 (SD) ([3]; JN, n = 6, 2 mIU CMS inhaled, t1/2 = 0.693/λ, mean (SD), SD): 2.4 (0.5) h | Volume of distribution/ fraction of dose absorbed ([3]; VMN, n = 18, 2 mIU CMS inhaled): 22.8 (16.8–33.0) L | Clearance/fraction of dose absorbed ([3]; VMN, n = 18, 2 mIU CMS inhaled): 7.3 (6.0–9.1) L/h | Cmax ([3]; VMN, n = 18, 2 mIU CMS inhaled): 2.6 (2.0–3.5) mg/L | Cmin ([3]; VMN, n = 18, 2 mIU CMS inhaled): 0.2 (0.1–0.3) mg/L | AUC0–8 h ([3]; VMN, n = 18, 2 mIU CMS inhaled): 7.5 (5.5–8.8) mg/L∙h | level at 0.5 h [3, 4]: 100 ng/mL | level at 0.5 h [3, 5]: 600 ng/mL | level at 1 h [3, 4]: 100 ng/mL | level at 1 h [3, 5]: 2300 ng/mL | level at 2 h [3, 4]: 300 ng/mL | level at 2 h [3, 5]: 1700 ng/mL | level at 4 h [3, 4]: 200 ng/mL | level at 4 h [3, 5]: 800 ng/mL | level at 6 h [3, 4]: 100 ng/mL | level at 6 h [3, 5]: 400 ng/mL | level at 8 h [3, 4]: 100 ng/mL | level at 8 h [3, 5]: 200 ng/mL | Tmax [3, 4]: 2.2 h | Tmax [3, 5]: 1.5 h | half-life ([3]; human, inhaled or intranasal, VMN, n = 18, 2 mIU CMS inhaled, t1/2 = 0.693/λ, mean (SD), SD): 2.4 h
